Results published in US12507721B2, “Ready-to-use parenteral nutrition formulation” (BAXTER INTERNATIONAL INC., priority 2021, dated 2025).

Assay: Stability of vitamin B12 during sterilization at different C0
Format: physicochemical
Conditions: Batch 3 (5% lipid emulsion); C0=120 min
Description: Therefore, in a first step, exemplary glucose solutions and lipid emulsions each containing vitamin B12 were submitted to different amounts of C0 during the sterilization step to analyze the impact of C0 on the stability of vitamin B12. Several C0 values were targeted and a wide range, from 20 min to 120 min, was screened to understand the correlation between C0 and the degradation of vitamin B12 in different media. Bags of lipid emulsion were produced, wherein the 5% olive-based emulsion contained vitamin B12 (cyanocobalamin form) at a concentration of 1 dd in 25 mL and, in one case, EDTA in a concentration of 0.1% w/v of the final emulsion (see Table 6). […] The heat sensitivity of the vitamin was assessed through the analysis of the respective degradation profile. […]
The solutions were analyzed unsterilized and sterilized for each cycle. […]
Bags were then analyzed at the respective points in time to evaluate the impact on the degradation of vitamin B12. The quantitative determination of vitamin B12 in the form of cyano- and hydroxocobalamins was done by Ultra Performance Liquid Chromatography (UPLC), which separates components of a solution by partitioning of the analytes between a mobile liquid phase and a […] (reversed phase mode). […]

degradation of the total sum of vitamin B12: about 35%
Substance: cobalamin [Batch B12]
